What was measured:
Experiment in all cases: relative viability (nuclei count vs DMSO), 5 days (fraction); higher = more cells survive
[1] = compound: CC1=C(C(=O)N2C=CSC2=N1)CCN3CCC(=C(C4=CC=CC=C4)C5=CC=C(C=C5)F)CC3 + Cc1cc(Nc2cc(N3CCN(C)CC3)nc(Sc3ccc(NC(=O)C4CC4)cc3)n2)n[nH]1 [Tozasertib] (partner 0.1 µM)
Procedure, shortened: (§1)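 Relative viability was taken as the ratio of nuclei in treated wells to nuclei in vehicle wells. Lung cancer cell lines in 1536-well plates received compounds by pin tool one day after seeding, either one drug alone or a fixed anchor-drug dose plus five library-drug doses (not always all listed) in √10 steps. Nuclei were counted on 4× images after 5 days of treatment, and values are medians of duplicate plates.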

[2] = compound: CC1=C(C(=O)N2C=CSC2=N1)CCN3CCC(=C(C4=CC=CC=C4)C5=CC=C(C=C5)F)CC3 + CC1(C)CCC(c2ccc(Cl)cc2)=C(CN2CCN(c3ccc(C(=O)NS(=O)(=O)c4ccc(N[C@H](CCN5CCOCC5)CSc5ccccc5)c(S(=O)(=O)C(F)(F)F)c4)cc3)CC2)C1 [Navitoclax] (partner 0.5 µM)
Procedure, shortened: as §1

[3] = compound: CC1=C(C(=O)N2C=CSC2=N1)CCN3CCC(=C(C4=CC=CC=C4)C5=CC=C(C=C5)F)CC3 + C[C@@H](Oc1cc(-c2cnn(C3CCNCC3)c2)cnc1N)c1c(Cl)ccc(F)c1Cl [Crizotinib] (partner 1 µM)
Procedure, shortened: as §1

[4] = compound: CC1=C(C(=O)N2C=CSC2=N1)CCN3CCC(=C(C4=CC=CC=C4)C5=CC=C(C=C5)F)CC3 + O=C(CCCCCCC(=O)Nc1ccccc1)NO [Vorinostat] (partner 1 µM)
Procedure, shortened: as §1

## HCC-44
[1]; first compound 0.08 µM
  relative viability: 0.855
[1]; first compound 0.253 µM
  relative viability: 1.33
[1]; first compound 2.53 µM
  relative viability: 0.896
[1]; first compound 8 µM
  relative viability: 0.525
[2]; first compound 0.08 µM
  relative viability: 0.989
[2]; first compound 0.253 µM
  relative viability: 1.28
[2]; first compound 0.8 µM
  relative viability: 1.01
[2]; first compound 2.53 µM
  relative viability: 1.13
[2]; first compound 8 µM
  relative viability: 0.477
[3]; first compound 0.08 µM
  relative viability: 0.836
[3]; first compound 0.253 µM
  relative viability: 0.842
[3]; first compound 0.8 µM
  relative viability: 0.927
[3]; first compound 2.53 µM
  relative viability: 0.858
[3]; first compound 8 µM
  relative viability: 0.665
[4]; first compound 0.08 µM
  relative viability: 1.19
[4]; first compound 0.253 µM
  relative viability: 1.19
[4]; first compound 0.8 µM
  relative viability: 1.09
[4]; first compound 2.53 µM
  relative viability: 1.24
[4]; first compound 8 µM
  relative viability: 0.93

## NCI-H1734
[1]; first compound 0.08 µM
  relative viability: 0.253
[1]; first compound 0.253 µM
  relative viability: 0.237
[1]; first compound 0.8 µM
  relative viability: 0.266
[1]; first compound 2.53 µM
  relative viability: 0.27
[1]; first compound 8 µM
  relative viability: 0.234
[2]; first compound 0.08 µM
  relative viability: 0.732
[2]; first compound 0.253 µM
  relative viability: 0.818
[2]; first compound 0.8 µM
  relative viability: 0.966
[2]; first compound 2.53 µM
  relative viability: 0.795
[2]; first compound 8 µM
  relative viability: 0.493
[3]; first compound 0.08 µM
  relative viability: 0.661
[3]; first compound 0.253 µM
  relative viability: 0.653
[3]; first compound 0.8 µM
  relative viability: 0.625
[3]; first compound 2.53 µM
  relative viability: 0.672
[3]; first compound 8 µM
  relative viability: 0.467
[4]; first compound 0.08 µM
  relative viability: 0.881
[4]; first compound 0.253 µM
  relative viability: 0.652
[4]; first compound 0.8 µM
  relative viability: 0.734
[4]; first compound 2.53 µM
  relative viability: 0.86
[4]; first compound 8 µM
  relative viability: 0.747

## NCI-H322M
[1]; first compound 0.08 µM
  relative viability: 0.487
[1]; first compound 0.253 µM
  relative viability: 0.468
[1]; first compound 0.8 µM
  relative viability: 0.443
[1]; first compound 2.53 µM
  relative viability: 0.561
[1]; first compound 8 µM
  relative viability: 0.529
[2]; first compound 0.08 µM
  relative viability: 0.987
[2]; first compound 0.253 µM
  relative viability: 1.29
[2]; first compound 0.8 µM
  relative viability: 1.34
[2]; first compound 2.53 µM
  relative viability: 1.36
[2]; first compound 8 µM
  relative viability: 0.889
[3]; first compound 0.08 µM
  relative viability: 0.732
[3]; first compound 0.253 µM
  relative viability: 0.948
[3]; first compound 0.8 µM
  relative viability: 0.878
[3]; first compound 2.53 µM
  relative viability: 0.696
[3]; first compound 8 µM
  relative viability: 0.834
[4]; first compound 0.08 µM
  relative viability: 0.898
[4]; first compound 0.253 µM
  relative viability: 0.845
[4]; first compound 0.8 µM
  relative viability: 0.862
[4]; first compound 2.53 µM
  relative viability: 0.953
[4]; first compound 8 µM
  relative viability: 0.943

## NCI-H1650
[1]; first compound 0.08 µM
  relative viability: 0.402
[1]; first compound 0.253 µM
  relative viability: 0.428
[1]; first compound 0.8 µM
  relative viability: 0.463
[1]; first compound 2.53 µM
  relative viability: 0.372
[1]; first compound 8 µM
  relative viability: 0.363
[2]; first compound 0.08 µM
  relative viability: 0.992
[2]; first compound 0.253 µM
  relative viability: 1.2
[2]; first compound 0.8 µM
  relative viability: 1.16
[2]; first compound 2.53 µM
  relative viability: 1.44
[2]; first compound 8 µM
  relative viability: 0.865
[3]; first compound 0.08 µM
  relative viability: 0.892
[3]; first compound 0.253 µM
  relative viability: 1.14
[3]; first compound 0.8 µM
  relative viability: 0.957
[3]; first compound 2.53 µM
  relative viability: 1.01
[3]; first compound 8 µM
  relative viability: 0.872
[4]; first compound 0.08 µM
  relative viability: 0.426
[4]; first compound 0.253 µM
  relative viability: 0.525
[4]; first compound 0.8 µM
  relative viability: 0.559
[4]; first compound 2.53 µM
  relative viability: 0.593
[4]; first compound 8 µM
  relative viability: 0.327

## PC-14
[1]; first compound 0.08 µM
  relative viability: 0.489
[1]; first compound 0.253 µM
  relative viability: 0.675
[1]; first compound 0.8 µM
  relative viability: 0.603
[1]; first compound 2.53 µM
  relative viability: 0.681
[1]; first compound 8 µM
  relative viability: 0.481
[2]; first compound 0.08 µM
  relative viability: 0.655
[2]; first compound 0.253 µM
  relative viability: 0.974
[2]; first compound 0.8 µM
  relative viability: 1.05
[2]; first compound 2.53 µM
  relative viability: 1.09
[2]; first compound 8 µM
  relative viability: 0.449
[3]; first compound 0.08 µM
  relative viability: 0.919
[3]; first compound 0.253 µM
  relative viability: 0.907
[3]; first compound 0.8 µM
  relative viability: 0.875
[3]; first compound 2.53 µM
  relative viability: 1.13
[3]; first compound 8 µM
  relative viability: 0.716
[4]; first compound 0.08 µM
  relative viability: 0.677
[4]; first compound 0.253 µM
  relative viability: 0.901
[4]; first compound 0.8 µM
  relative viability: 0.866
[4]; first compound 2.53 µM
  relative viability: 0.762
[4]; first compound 8 µM
  relative viability: 0.623

## NCI-H2170
[1]; first compound 0.08 µM
  relative viability: 0.704
[1]; first compound 0.253 µM
  relative viability: 0.804
[1]; first compound 0.8 µM
  relative viability: 0.741
[1]; first compound 2.53 µM
  relative viability: 0.781
[1]; first compound 8 µM
  relative viability: 0.404
[2]; first compound 0.08 µM
  relative viability: 0.515
[2]; first compound 0.253 µM
  relative viability: 0.605
[2]; first compound 0.8 µM
  relative viability: 0.649
[2]; first compound 2.53 µM
  relative viability: 0.492
[2]; first compound 8 µM
  relative viability: 0.58
[3]; first compound 0.08 µM
  relative viability: 1.2
[3]; first compound 0.253 µM
  relative viability: 1.17
[3]; first compound 0.8 µM
  relative viability: 1.36
[3]; first compound 2.53 µM
  relative viability: 1.11
[3]; first compound 8 µM
  relative viability: 0.927
[4]; first compound 0.08 µM
  relative viability: 0.638
[4]; first compound 0.253 µM
  relative viability: 0.791
[4]; first compound 0.8 µM
  relative viability: 0.739
[4]; first compound 2.53 µM
  relative viability: 0.715
[4]; first compound 8 µM
  relative viability: 0.463

## NCI-H2228
[1]; first compound 0.08 µM
  relative viability: 0.278
[1]; first compound 0.253 µM
  relative viability: 0.237
[1]; first compound 0.8 µM
  relative viability: 0.227
[1]; first compound 2.53 µM
  relative viability: 0.232
[1]; first compound 8 µM
  relative viability: 0.282
[2]; first compound 0.08 µM
  relative viability: 0.693
[2]; first compound 0.253 µM
  relative viability: 0.914
[2]; first compound 0.8 µM
  relative viability: 0.811
[2]; first compound 2.53 µM
  relative viability: 0.838
[2]; first compound 8 µM
  relative viability: 0.623
[3]; first compound 0.08 µM
  relative viability: 0.6
[3]; first compound 0.253 µM
  relative viability: 0.486
[3]; first compound 0.8 µM
  relative viability: 0.376
[3]; first compound 2.53 µM
  relative viability: 0.539
[3]; first compound 8 µM
  relative viability: 0.322
[4]; first compound 0.08 µM
  relative viability: 0.474
[4]; first compound 0.253 µM
  relative viability: 0.557
[4]; first compound 0.8 µM
  relative viability: 0.636
[4]; first compound 2.53 µM
  relative viability: 0.599
[4]; first compound 8 µM
  relative viability: 0.337

From the supplement of paper PMC10307832
